Source: US6531477B1, “6-substituted pyrazolo [3,4-d] pyrimidin-4-ones useful as cyclin dependent kinase inhibitors” (DuPont Pharmaceuticals Company, priority 1998, dated 2003)

Row | SMILES | melting point [°C]
1 | COc1cccc(Cc2nc3c(c(SC)nn3-c3c(F)cccc3Cl)c(=O)[nH]2)c1 [Example 182] | 244 to 245
2 | COc1ccc(Cc2nc3c(c(SC)nn3-c3c(Cl)cc(Br)cc3Cl)c(=O)[nH]2)cc1 [Example 183] | 267 to 268
3 | CCc1nn(-c2c(C)cccc2Cl)c2nc(Cc3ccc(O)cc3)[nH]c(=O)c12 [Example 184] | 255 to 256
4 | COc1ccc(Cc2nc3c(c(SC)nn3-c3c(C)cc(Cl)cc3Cl)c(=O)[nH]2)cc1 [Example 185] | 252 to 255
5 | COc1ccc(Cc2nc3c(c(SC)nn3-c3c(C)cccc3Cl)c(=O)[nH]2)cc1 [Example 186] | 233 to 235
6 | CCc1nn(-c2c(C)cc(Cl)cc2Cl)c2nc(Cc3ccc(OC)cc3)[nH]c(=O)c12 [Example 187] | 245 to 246
7 | CSc1nn(-c2c(C)cc(Cl)cc2Cl)c2nc(Cc3ccc(O)cc3)[nH]c(=O)c12 [Example 188] | 277 to 279
8 | CSc1nn(-c2c(C)cccc2Cl)c2nc(Cc3ccc(O)cc3)[nH]c(=O)c12 [Example 190] | 264 to 266
9 | CCc1nn(-c2c(C)cccc2Cl)c2nc(Cc3ccc(OC)cc3)[nH]c(=O)c12 [Example 191] | 220 to 221
10 | CCc1nn(-c2c(C)cccc2Cl)c2nc(Cc3ccc(O)cc3)[nH]c(=O)c12 [Example 192] | 257 to 259
11 | CCc1nn(-c2c(C)cccc2Cl)c2nc(Cc3cccc(OC)c3)[nH]c(=O)c12 [Example 193] | 188 to 190
12 | CCc1nn(-c2c(Cl)cc(C(=O)O)cc2Cl)c2nc(Cc3ccc(OC)cc3)[nH]c(=O)c12 [Example 195] | 292 to 294
13 | CCc1nn(-c2c(Cl)cc(C(=O)O)cc2Cl)c2nc(Cc3ccc(O)cc3)[nH]c(=O)c12 [Example 196] | 308 to 310

The remaining lines, values ahead:

Row | melting point [°C] | SMILES
14 | 280 to 282 | CCc1nn(-c2c(Cl)cc(C(=O)O)cc2Cl)c2nc(Cc3cccc(O)c3)[nH]c(=O)c12 [Example 198]
15 | 205 to 206 | Cc1cccc(Cl)c1-n1nc(C(C)C)c2c(=O)[nH]c(Cc3ccc(N)cc3)nc21 [Example 199]
16 | 278 to 280 | CCc1nn(-c2c(Cl)cc(C(=O)NC)cc2Cl)c2nc(Cc3ccc(OC)cc3)[nH]c(=O)c12 [Example 201]
17 | 226 to 228 | CCc1nn(-c2c(Cl)cc(C(=O)O)cc2Cl)c2nc(Cc3ccc(N)cc3)[nH]c(=O)c12 [Example 205]
18 | 227 to 229 | COc1cccc(Cc2nc3c(c(CO)nn3-c3c(Cl)cc(Cl)cc3Cl)c(=O)[nH]2)c1 [Example 208]
19 | 212 to 213 | Cc1cc(Cl)cc(Cl)c1-n1nc(C(C)C)c2c(=O)[nH]c(Cc3ccc(N)cc3)nc21 [Example 217]
20 | 244 to 245 | COc1cccc(Cc2nc3c(c(C(C)C)nn3-c3c(Cl)cc(S(N)(=O)=O)cc3Cl)c(=O)[nH]2)c1 [Example 225]
21 | 227 to 229 | CCc1nn(-c2cc(C(F)(F)F)ccc2Cl)c2nc(Cc3cccc(O)c3)[nH]c(=O)c12 [Example 227]
22 | 226 to 228 | CCNC(=O)c1cc(Cl)c(-n2nc(CC)c3c(=O)[nH]c(Cc4cccc(OC)c4)nc32)c(Cl)c1 [Example 236]
23 | 222 to 224 | CCc1nn(-c2c(Cl)cc(C(=O)NC(C)(C)C)cc2Cl)c2nc(Cc3cccc(OC)c3)[nH]c(=O)c12 [Example 238]
